Experimental data as given in the supplement of paper PMC13380429.

Columns and labels:
Details in all cases: 72 h
HepG2 [1] = assay: relative viability EC50 (midpoint between 100% and the lowest measured viability); higher = less toxic
U2OS [2] = assay: as above
Vero E6 [3] = assay: as above
Calu-3 [4] = assay: as above
Caco-2 [5] = assay: as above
HepG2 [6] = assay: drug sensitivity score (DSS) for viability; higher = more toxic; extreme values may be limits of the assay
U2OS [7] = assay: as above
Vero E6 [8] = assay: as above
Calu-3 [9] = assay: as above
Caco-2 [10] = assay: as above
HepG2 [11] = assay: cell viability relative to DMSO; higher = less toxic
U2OS [12] = assay: as above
Vero E6 [13] = assay: as above
Calu-3 [14] = assay: as above
Caco-2 [15] = assay: as above

SMILES | relative viability EC50 (HepG2 [1]) [µM] | relative viability EC50 (U2OS [2]) [µM] | relative viability EC50 (Vero E6 [3]) [µM] | relative viability EC50 (Calu-3 [4]) [µM] | relative viability EC50 (Caco-2 [5]) [µM] | drug sensitivity score (HepG2 [6]) | drug sensitivity score (U2OS [7]) | drug sensitivity score (Vero E6 [8]) | drug sensitivity score (Calu-3 [9]) | drug sensitivity score (Caco-2 [10]) | cell viability (HepG2 [11]; 1 nM) [%] | cell viability (HepG2 [11]; 10 nM) [%] | cell viability (HepG2 [11]; 100 nM) [%] | cell viability (HepG2 [11]; 1000 nM) [%] | cell viability (HepG2 [11]; 10000 nM) [%] | cell viability (U2OS [12]; 1 nM) [%] | cell viability (U2OS [12]; 10 nM) [%] | cell viability (U2OS [12]; 100 nM) [%] | cell viability (U2OS [12]; 1000 nM) [%] | cell viability (U2OS [12]; 10000 nM) [%] | cell viability (Vero E6 [13]; 1 nM) [%] | cell viability (Vero E6 [13]; 10 nM) [%] | cell viability (Vero E6 [13]; 100 nM) [%] | cell viability (Vero E6 [13]; 1000 nM) [%] | cell viability (Vero E6 [13]; 10000 nM) [%] | cell viability (Calu-3 [14]; 1 nM) [%] | cell viability (Calu-3 [14]; 10 nM) [%] | cell viability (Calu-3 [14]; 100 nM) [%] | cell viability (Calu-3 [14]; 1000 nM) [%] | cell viability (Calu-3 [14]; 10000 nM) [%] | cell viability (Caco-2 [15]; 1 nM) [%] | cell viability (Caco-2 [15]; 10 nM) [%] | cell viability (Caco-2 [15]; 100 nM) [%] | cell viability (Caco-2 [15]; 1000 nM) [%] | cell viability (Caco-2 [15]; 10000 nM) [%]
O=C(O)/C=C/CO [trans-4-hydroxycrotonic-acid] | > 10 | > 10 | > 10 | > 10 | > 10 | 0 | 0 | 0 | 0 | 0 | 94.7 | 92 | 98 | 113 | 102 | 98.3 | 99.7 | 102 | 98.2 | 98.9 | 97 | 102 | 94.8 | 101 | 106 | 109 | 95.3 | 102 | 97.1 | 100 | 96.2 | 93.5 | 97.6 | 103 | 99.8
O=C1O[C@H]([C@@H](O)CO)C(O)=C1O [ASCORBIC ACID] | > 10 | > 10 | > 10 | > 10 | > 10 | 0 | 0 | 0 | 0 | 0 | 99.6 | 98.3 | 108 | 93.4 | 101 | 109 | 98.8 | 99.8 | 100 | 102 | 99.7 | 112 | 106 | 103 | 103 | 105 | 95.5 | 110 | 96.3 | 108 | 103 | 95.9 | 100 | 100 | 98.4
Cc1ccc2nc(N)[nH]c(=O)c2c1Sc1ccncc1 [nolatrexed] |  | > 10 | > 10 | > 10 | > 10 | 1.1 | 0 | 0.5 | 0 | 0.4 | 107 | 99.5 | 97.1 | 101 | 71.6 | 94.3 | 99.3 | 92.4 | 101 | 94.3 | 103 | 97.2 | 99.8 | 98.9 | 83.1 | 97.9 | 93.4 | 85.8 | 96.9 | 99.1 | 98.2 | 98.7 | 101 | 104 | 80.3
CC(=O)OC[C@H](N)C(=O)O [O-acetyl-L-serine] | > 10 | > 10 | > 10 | > 10 | > 10 | 0 | 0 | 0 | 0 | 0 | 115 | 103 | 106 | 110 | 95.2 | 104 | 104 | 99.3 | 105 | 98.9 | 114 | 89.8 | 99.2 | 103 | 104 | 111 | 97.6 | 105 | 92.5 | 97.1 | 104 | 109 | 90.3 | 106 | 94.9
COC(=O)[C@@H](N)CCCNC(=N)N[N+](=O)[O-] [L-NAME] | > 10 | > 10 | > 10 | > 10 | > 10 | 0 | 0 | 0 | 0 | 0 | 97.4 | 104 | 94.5 | 95.4 | 116 | 101 | 97.9 | 103 | 101 | 110 | 97.7 | 96.6 | 99.9 | 98.6 | 105 | 96 | 106 | 99.6 | 94.7 | 114 | 94.6 | 97.3 | 94.4 | 97.8 | 106
CC#CCn1c(N2CCC[C@@H](N)C2)nc2c1c(=O)n(Cc1nc(C)c3ccccc3n1)c(=O)n2C [linagliptin] | > 10 | > 10 | > 10 | > 10 | > 10 | 0 | 0 | 0 | 0 | 0 | 95.3 | 93.8 | 95.7 | 103 | 102 | 98.4 | 99.8 | 98.9 | 107 | 96.1 | 97.1 | 106 | 105 | 84.4 | 110 | 95.9 | 103 | 99.2 | 97.9 | 102 | 103 | 105 | 89.9 | 91.4 | 102
COc1ccc(N2CCOCC2)c2sc(NC(=O)N3CCC(C)(O)CC3)nc12 [tozadenant] | > 10 | > 10 | > 10 | > 10 | > 10 | 0 | 0 | 0 | 0 | 0 | 85.8 | 99.4 | 109 | 99.7 | 98.2 | 103 | 95.7 | 102 | 98.9 | 103 | 94.5 | 106 | 90.6 | 94.3 | 101 | 87.7 | 94.1 | 87.3 | 101 | 97.4 | 90.8 | 95.5 | 110 | 96.1 | 98
N[C@@H](Cc1ccc(O)cc1)C(=O)O [plovamer-acetate] | > 10 | > 10 | > 10 | > 10 | > 10 | 0 | 0 | 0 | 0 | 4.2 | 87.2 | 94.4 | 93 | 90.1 | 80.1 | 99.1 | 94.8 | 102 | 93.3 | 97.6 | 106 | 102 | 96.3 | 104 | 95.5 | 97.9 | 98.5 | 105 | 104 | 102 | 119 | 83.9 | 84.4 | 90.7 | 92.1
Cc1ccc(C[N+](C)(C)C)o1 [5-methylfurmethiodide] | > 10 | > 10 | > 10 | > 10 | > 10 | 0 | 0 | 0 | 0 | 0 | 104 | 108 | 93.8 | 103 | 90.2 | 101 | 99.7 | 102 | 98.7 | 103 | 104 | 103 | 97.5 | 107 | 99.9 | 108 | 103 | 93.9 | 100 | 101 | 99.1 | 105 | 103 | 96.3 | 108
O=C(Nc1cc(C(F)(F)F)cc(C(F)(F)F)c1)c1cnc(Cl)nc1C(F)(F)F | > 10 | > 10 | > 10 | > 10 | > 10 | 0 | 0 | 0 | 0 | 0 | 90.4 | 96.7 | 99.8 | 97 | 92.6 | 100 | 100 | 102 | 99.9 | 94.9 | 96 | 97.5 | 97.1 | 97.2 | 102 | 98.3 | 109 | 101 | 104 | 99.2 | 102 | 94.3 | 102 | 103 | 97.7
COc1ccc(S(=O)(=O)Nc2c(C)cc(C)cc2C)cc1 | > 10 | > 10 | > 10 | > 10 | > 10 | 0 | 0 | 0 | 0 | 0 | 105 | 98 | 105 | 99.5 | 97.3 | 103 | 98.7 | 101 | 98.5 | 99.6 | 101 | 105 | 97.2 | 101 | 93.7 | 103 | 96.5 | 94.6 | 106 | 102 | 106 | 94.2 | 93.6 | 94.9 | 94.1
CC(C)(O)CS(=O)(=O)Nc1ccc2c(c1)CCN(C(=O)COc1cccnc1)C2 [Nampt-IN-1] | 0.0823 | 0.0392 | 0.348 | 0.0828 | 0.193 | 21.2 | 29.3 | 17.1 | 22.9 | 20 | 98.2 | 100 | 50.2 | 20.1 | 16.2 | 108 | 104 | 6.2 | -0.1 | 0.1 | 105 | 103 | 104 | 3.3 | 2.4 | 93.2 | 88.1 | 50.8 | 6.2 | 5.7 | 100 | 99.8 | 84.5 | 4 | 3.7
CCN(C(C)=O)c1cccc(-c2ccnc3c(C#N)cnn23)c1 [ZALEPLON] | > 10 | > 10 | > 10 | > 10 | > 10 | 0 | 0 | 0 | 0 | 0 | 90.5 | 95.6 | 91 | 105 | 89.3 | 105 | 104 | 102 | 103 | 96 | 97.5 | 99.2 | 99.3 | 101 | 95 | 93.9 | 96.7 | 96.7 | 86.1 | 90.7 | 96.6 | 102 | 100 | 104 | 96.4
CC[C@]1(O)C[C@@H]2CN(CCc3c([nH]c4ccccc34)[C@@](C(=O)OC)(c3cc4c(cc3OC)N(C)[C@H]3[C@@](O)(C(N)=O)[C@H](O)[C@]5(CC)C=CCN6CC[C@]43[C@@H]65)C2)C1 [vindesine] | 0.0085 | 0.018 | 0.219 | 0.0122 | 0.0121 | 23.5 | 25.7 | 14.3 | 17.8 | 20.6 | 92.9 | 64.8 | 43.2 | 35.8 | 37.2 | 98.7 | 73.5 | 31.6 | 26.4 | 22.3 | 96.4 | 95.3 | 83.3 | 33.6 | 27.3 | 93.8 | 70.6 | 61.4 | 47 | 45.9 | 93.8 | 72.7 | 48.5 | 41.2 | 40.3
